Each molecule was assayed against T1, human SLC6A19 and TMEM27 (Homo sapiens, UniProt Q695T7) (assay: Radiolabelled (3H) leucine uptake in CHO cells with doxycycline-inducible expression of human SLC6A19 and TMEM27 (Example B-1)). Details: CHO cells with doxycycline-inducible expression of human SLC6A19 and TMEM27, read-out: SLC6A19_Radioligand Uptake Assay IC50.
T1 construct: expressed in transfected cells
T1 sequence (Q695T7 1-634): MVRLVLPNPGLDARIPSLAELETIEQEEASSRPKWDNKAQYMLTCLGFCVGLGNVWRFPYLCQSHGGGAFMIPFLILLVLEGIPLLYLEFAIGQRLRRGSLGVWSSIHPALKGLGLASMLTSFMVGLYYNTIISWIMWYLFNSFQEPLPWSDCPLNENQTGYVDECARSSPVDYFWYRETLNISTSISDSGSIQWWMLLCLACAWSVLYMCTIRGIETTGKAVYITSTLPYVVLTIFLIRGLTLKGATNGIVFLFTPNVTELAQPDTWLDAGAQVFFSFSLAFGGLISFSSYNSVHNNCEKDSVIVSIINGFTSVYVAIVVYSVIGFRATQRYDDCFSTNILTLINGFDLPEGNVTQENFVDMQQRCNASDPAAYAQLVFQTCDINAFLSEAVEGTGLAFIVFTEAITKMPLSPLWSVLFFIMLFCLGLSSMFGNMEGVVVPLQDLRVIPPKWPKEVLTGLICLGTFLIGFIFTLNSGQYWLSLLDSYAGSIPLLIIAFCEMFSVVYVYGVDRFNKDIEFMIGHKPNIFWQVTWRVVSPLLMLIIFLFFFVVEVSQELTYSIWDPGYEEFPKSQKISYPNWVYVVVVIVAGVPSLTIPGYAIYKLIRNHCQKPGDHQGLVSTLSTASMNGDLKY
T1 sequence (Q9HBJ8 15-222 partner): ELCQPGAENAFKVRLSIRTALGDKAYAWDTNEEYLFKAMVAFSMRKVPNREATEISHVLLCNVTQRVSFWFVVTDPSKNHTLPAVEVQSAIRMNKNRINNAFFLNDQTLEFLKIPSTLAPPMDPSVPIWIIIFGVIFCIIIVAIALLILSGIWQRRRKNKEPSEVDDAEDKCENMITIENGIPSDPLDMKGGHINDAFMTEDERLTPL
Format: cell-based
In short: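 CHO cells were induced with doxycycline for 18 h at 37 °C, washed in HBSS, then exposed to compounds for 1 h: 8-point, 3-fold dilutions in duplicate, 0.5% DMSO final. Uptake measured by scintillation counting after 2 h shaking. Activity normalized with positive control as 0% and DMSO as 100%.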

Compound | IC50
CC(C)c1cc2cc(CNC(=O)C3(C)CC3)[nH]c2cc1OCc1ccon1 [Compound 204, N-((5-isopropyl-6-(isoxazol-3-ylmethoxy)-1H-indol-2-yl)methyl)-1-methylcyclopropane-1-carboxamide] | 536 nM
CC1(C(=O)NCc2cc3cc(OC(F)(F)F)c(CCc4cocn4)cc3[nH]2)CC1 [Compound 514, 1-methyl-N-((6-(2-(oxazol-4-yl)ethyl)-5-(trifluoromethoxy)-1H-indol-2-yl)methyl)cyclopropane-1-carboxamide] | 408 nM
Cc1cc(COc2cc3[nH]c(CNC(=O)Cn4cccn4)cc3cc2Cl)on1 [Compound 521, N-((5-chloro-6-((3-methylisoxazol-5-yl)methoxy)-1H-indol-2-yl)methyl)-2-(1H-pyrazol-1-yl)acetamide] | > 7970 nM
Cc1cc(COc2cc3[nH]c(CNC(=O)C4(CO)CCCO4)cc3cc2Cl)on1 (centres unmarked) [Compound 295, N-((5-chloro-6-((3-methylisoxazol-5-yl)methoxy)-1H-indol-2-yl)methyl)-2-(hydroxymethyl)tetrahydrofuran-2-carboxamide] | 1610 nM
CC(=O)NCc1cc2cc(Cl)c(OC[C@@H]3CCCO3)cc2[nH]1 [Compound 466, (S)-N-((5-chloro-6-((tetrahydrofuran-2-yl)methoxy)-1H-indol-2-yl)methyl)acetamide] | 2960 nM
O=C(NCc1cc2cc(C3CC3)c(OCc3cscn3)cc2[nH]1)N1CCCC1 [Compound 652, N-((5-cyclopropyl-6-(thiazol-4-ylmethoxy)-1H-indol-2-yl)methyl)pyrrolidine-1-carboxamide] | 365 nM
Cc1cc(COc2cc3[nH]c(CNC(=O)[C@@]4(C)CCCO4)cc3cc2Cl)on1 [Compound 307, (R)-N-((5-chloro-6-((3-methylisoxazol-5-yl)methoxy)-1H-indol-2-yl)methyl)-2-methyltetrahydrofuran-2-carboxamide] | 579 nM
Cc1cnc(COc2cc3[nH]c(CNC(=O)N4CCCC4)cc3cc2Cl)o1 [Compound 120, N-((5-chloro-6-((5-methyloxazol-2-yl)methoxy)-1H-indol-2-yl)methyl)pyrrolidine-1-carboxamide] | 375 nM
Cc1cc(COc2cc3[nH]c(CNC(=O)C(C)C#N)cc3cc2Cl)on1 (single isomer, unassigned) [Compound 446, (R or S)-N-((5-chloro-6-((3-methylisoxazol-5-yl)methoxy)-1H-indol-2-yl)methyl)-2-cyanopropanamide] | 221 nM
Cc1cc(COc2cc3[nH]c(CNC(=O)N4CCC4C#N)cc3cc2Cl)on1 (centres unmarked) [Compound 376, N-((5-chloro-6-((3-methylisoxazol-5-yl)methoxy)-1H-indol-2-yl)methyl)-2-cyanoazetidine-1-carboxamide] | 2120 nM
Cc1cc(COc2cc3[nH]c(CNC(=O)[C@@H]4CCN4C)cc3cc2Cl)on1 [Compound 576, (S)-N-((5-chloro-6-((3-methylisoxazol-5-yl)methoxy)-1H-indol-2-yl)methyl)-1-methylazetidine-2-carboxamide] | 824 nM
Cc1cc(COc2cc3[nH]c(CNC(=O)[C@H](C)O)cc3cc2Cl)on1 [Compound 284, (S)-N-((5-chloro-6-((3-methylisoxazol-5-yl)methoxy)-1H-indol-2-yl)methyl)-2-hydroxypropanamide] | 172 nM
Cc1cc(COc2cc3[nH]c(CNC(=O)C4COC4)cc3cc2Cl)on1 [Compound 274, N-((5-chloro-6-((3-methylisoxazol-5-yl)methoxy)-1H-indol-2-yl)methyl)oxetane-3-carboxamide] | 175 nM
O=C(NCc1cc2cc(F)c(OCc3cocn3)cc2[nH]1)N1CCC1 [Compound 358, N-((5-fluoro-6-(oxazol-4-ylmethoxy)-1H-indol-2-yl)methyl)azetidine-1-carboxamide] | 319 nM
O=C(NCc1cc2cc(OC(F)(F)F)c(CCc3ccon3)cc2[nH]1)N1CCCC1 [Compound 598, N-((6-(2-(isoxazol-3-yl)ethyl)-5-(trifluoromethoxy)-1H-indol-2-yl)methyl)pyrrolidine-1-carboxamide] | 358 nM
O=C(NCc1cc2cc(F)c(OCc3ccon3)cc2[nH]1)N1CCC1 [Compound 89, N-((5-fluoro-6-(isoxazol-3-ylmethoxy)-1H-indol-2-yl)methyl)azetidine-1-carboxamide] | 567 nM
Cc1cc(COc2cc3[nH]c(CNC(=O)C(O)C4CC4)cc3cc2Cl)on1 (centres unmarked) [Compound 238, N-((5-chloro-6-((3-methylisoxazol-5-yl)methoxy)-1H-indol-2-yl)methyl)-2-cyclopropyl-2-hydroxyacetamide] | 1450 nM
Cc1cc(COc2cc3[nH]c(CNC(=O)C4(O)CC4)cc3cc2Cl)on1 [Compound 251, N-((5-chloro-6-((3-methylisoxazol-5-yl)methoxy)-1H-indol-2-yl)methyl)-1-hydroxycyclopropane-1-carboxamide] | 194 nM
O=C(NCc1cc2cc(Cl)c(OCc3cscn3)cc2[nH]1)[C@@H]1CCOC1 [Compound 316, (R)-N-((5-chloro-6-(thiazol-4-ylmethoxy)-1H-indol-2-yl)methyl)tetrahydrofuran-3-carboxamide] | 284 nM
Cc1cc(COc2cc3[nH]c(CNC(=O)N4CCC(C(F)F)C4)cc3cc2Cl)on1 (centres unmarked) [Compound 377, N-((5-chloro-6-((3-methylisoxazol-5-yl)methoxy)-1H-indol-2-yl)methyl)-3-(difluoromethyl)pyrrolidine-1-carboxamide] | 847 nM
[2H]C([2H])([2H])c1cc(COc2cc3[nH]c(CNC(=O)C4(C)CC4)cc3cc2F)no1 [Compound 664, N-((5-fluoro-6-((5-(methyl-d3)isoxazol-3-yl)methoxy)-1H-indol-2-yl)methyl)-1-methylcyclopropane-1-carboxamide] | 187 nM
Cc1cc(COc2cc3[nH]c(CNC(=O)CC4COC4)cc3cc2Cl)on1 [Compound 258, N-((5-chloro-6-((3-methylisoxazol-5-yl)methoxy)-1H-indol-2-yl)methyl)-2-(oxetan-3-yl)acetamide] | 2670 nM
CC[C@H](O)C(=O)NCc1cc2cc(Cl)c(OCc3cc(C)no3)cc2[nH]1 [Compound 240, (S)-N-((5-chloro-6-((3-methylisoxazol-5-yl)methoxy)-1H-indol-2-yl)methyl)-2-hydroxybutanamide] | 490 nM
Cc1cc(COc2cc3[nH]c(CNC(=O)[C@H]4C[C@@H]5CC[C@H]4O5)cc3cc2Cl)on1 (racemic) [Compound 297, (1R,2S,4S)-N-((5-chloro-6-((3-methylisoxazol-5-yl)methoxy)-1H-indol-2-yl)methyl)-7-oxabicyclo[2.2.1]heptane-2-carboxamide and (1S,2R,4R)-N-((5-chloro-6-((3-methylisoxazol-5-yl)methoxy)-1H-indol-2-yl)methyl)-7-oxabicyclo[2.2.1]heptane-2-carboxamide] | 1020 nM
COC(=O)NCc1cc2cc(F)c(OCc3cscn3)cc2[nH]1 [Compound 622, methyl ((5-fluoro-6-(thiazol-4-ylmethoxy)-1H-indol-2-yl)methyl)carbamate] | 84.8 nM
O=C(NCc1cc2cc(F)c(OCc3ccon3)cc2[nH]1)N1CCCC1 [Compound 116, N-((5-fluoro-6-(isoxazol-3-ylmethoxy)-1H-indol-2-yl)methyl)pyrrolidine-1-carboxamide] | 157 nM
